Assay results as given in paper PMC9329436, “Optimization of the 4-anilinoquin(az)oline scaffold as epidermal growth factor receptor (EGFR) inhibitors for chordoma utilizing a toxicology profiling assay platform” (Scientific Reports, 2022).
Like-named read-outs stand apart in the source and are kept apart here.

Tests used:
Type in all cases: biochemical
[1] = biological target: T1, 320 wild-type protein kinases (Homo sapiens, UniProt O00444); conditions: kinase SAK, singlicate
T1 sequence (O00444 1-970): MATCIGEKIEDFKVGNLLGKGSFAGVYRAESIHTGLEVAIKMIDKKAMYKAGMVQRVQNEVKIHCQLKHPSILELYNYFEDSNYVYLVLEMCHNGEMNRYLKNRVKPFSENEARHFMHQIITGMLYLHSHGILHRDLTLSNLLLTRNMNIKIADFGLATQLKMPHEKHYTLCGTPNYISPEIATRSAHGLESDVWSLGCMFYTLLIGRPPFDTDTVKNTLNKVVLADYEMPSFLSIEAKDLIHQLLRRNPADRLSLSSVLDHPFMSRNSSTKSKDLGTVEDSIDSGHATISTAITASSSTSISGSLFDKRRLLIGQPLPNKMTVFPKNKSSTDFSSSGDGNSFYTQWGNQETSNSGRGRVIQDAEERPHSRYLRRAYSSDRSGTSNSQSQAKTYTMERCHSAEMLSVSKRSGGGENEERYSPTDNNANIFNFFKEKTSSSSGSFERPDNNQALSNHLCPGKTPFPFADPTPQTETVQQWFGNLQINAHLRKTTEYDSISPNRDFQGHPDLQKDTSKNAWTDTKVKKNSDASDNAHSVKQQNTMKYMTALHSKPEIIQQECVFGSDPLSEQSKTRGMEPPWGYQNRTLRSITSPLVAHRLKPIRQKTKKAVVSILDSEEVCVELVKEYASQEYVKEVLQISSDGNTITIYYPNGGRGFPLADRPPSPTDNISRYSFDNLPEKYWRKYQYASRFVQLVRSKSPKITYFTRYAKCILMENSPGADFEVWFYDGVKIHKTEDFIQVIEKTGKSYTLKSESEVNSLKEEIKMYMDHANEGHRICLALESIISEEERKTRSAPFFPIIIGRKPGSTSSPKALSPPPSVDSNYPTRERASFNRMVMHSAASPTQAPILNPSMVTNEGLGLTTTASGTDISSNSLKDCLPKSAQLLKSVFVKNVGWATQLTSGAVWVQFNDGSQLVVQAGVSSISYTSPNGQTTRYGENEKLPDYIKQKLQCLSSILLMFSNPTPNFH
Source text: (§1) Table S4. Profiling of two compounds at two concentrations against 320 wild-type protein kinases; singlicate measurement; Residual activities (% of control).

[2] = biological target: 320 wild-type protein kinases (Homo sapiens, UniProt Q5VT25); conditions: CDC42BPA, singlicate
Source text: as §1

[3] = biological target: T2, 320 wild-type protein kinases (Homo sapiens, UniProt P54760); conditions: singlicate
T2 sequence (P54760 16-987): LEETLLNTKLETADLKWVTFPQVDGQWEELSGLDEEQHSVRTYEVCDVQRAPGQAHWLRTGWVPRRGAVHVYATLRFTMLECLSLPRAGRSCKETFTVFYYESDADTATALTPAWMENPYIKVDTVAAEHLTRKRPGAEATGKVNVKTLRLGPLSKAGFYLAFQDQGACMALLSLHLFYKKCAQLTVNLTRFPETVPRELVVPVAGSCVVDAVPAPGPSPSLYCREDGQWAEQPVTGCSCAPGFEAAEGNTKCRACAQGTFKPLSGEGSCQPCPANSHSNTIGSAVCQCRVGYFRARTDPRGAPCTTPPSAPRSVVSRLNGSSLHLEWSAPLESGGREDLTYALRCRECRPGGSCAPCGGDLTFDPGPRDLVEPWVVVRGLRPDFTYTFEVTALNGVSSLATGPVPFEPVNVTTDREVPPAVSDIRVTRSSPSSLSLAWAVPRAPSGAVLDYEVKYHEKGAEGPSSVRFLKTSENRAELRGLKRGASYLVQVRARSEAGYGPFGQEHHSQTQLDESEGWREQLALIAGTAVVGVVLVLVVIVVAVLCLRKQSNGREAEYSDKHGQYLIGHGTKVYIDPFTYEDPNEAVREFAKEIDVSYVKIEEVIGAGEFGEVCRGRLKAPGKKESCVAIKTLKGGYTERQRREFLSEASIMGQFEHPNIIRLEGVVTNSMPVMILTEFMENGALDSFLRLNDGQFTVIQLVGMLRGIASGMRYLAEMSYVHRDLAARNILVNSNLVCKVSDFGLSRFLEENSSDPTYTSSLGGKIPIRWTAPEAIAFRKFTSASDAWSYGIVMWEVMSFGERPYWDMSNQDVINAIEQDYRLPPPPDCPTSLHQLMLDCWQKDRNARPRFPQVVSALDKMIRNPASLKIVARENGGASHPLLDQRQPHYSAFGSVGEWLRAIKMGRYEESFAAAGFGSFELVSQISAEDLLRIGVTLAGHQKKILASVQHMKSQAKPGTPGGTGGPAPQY
Source text: as §1

[4] = biological target: T3, 320 wild-type protein kinases (Homo sapiens, UniProt P35626); conditions: singlicate
T3 sequence (P35626 1-688): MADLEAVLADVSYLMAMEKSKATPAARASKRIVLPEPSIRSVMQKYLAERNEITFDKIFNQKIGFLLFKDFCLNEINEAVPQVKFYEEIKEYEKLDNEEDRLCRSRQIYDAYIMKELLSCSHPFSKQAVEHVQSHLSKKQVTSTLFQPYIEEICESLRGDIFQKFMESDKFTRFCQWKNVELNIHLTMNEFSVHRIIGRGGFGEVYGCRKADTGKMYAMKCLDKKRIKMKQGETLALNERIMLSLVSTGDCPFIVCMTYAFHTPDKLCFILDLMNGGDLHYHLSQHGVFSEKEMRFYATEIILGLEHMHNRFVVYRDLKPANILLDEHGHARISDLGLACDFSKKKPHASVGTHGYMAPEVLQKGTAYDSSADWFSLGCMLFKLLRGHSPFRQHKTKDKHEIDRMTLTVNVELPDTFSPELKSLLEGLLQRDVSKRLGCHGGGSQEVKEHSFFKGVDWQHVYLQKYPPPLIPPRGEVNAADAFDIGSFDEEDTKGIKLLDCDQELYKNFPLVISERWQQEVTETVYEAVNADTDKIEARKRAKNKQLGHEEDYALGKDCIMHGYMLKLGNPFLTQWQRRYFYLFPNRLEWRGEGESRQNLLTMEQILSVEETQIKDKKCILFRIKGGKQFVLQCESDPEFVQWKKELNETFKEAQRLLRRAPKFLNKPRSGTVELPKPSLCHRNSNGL
Source text: as §1

Sequence of 320 wild-type protein kinases (Homo sapiens, UniProt Q5VT25) (Q5VT25 whole entry): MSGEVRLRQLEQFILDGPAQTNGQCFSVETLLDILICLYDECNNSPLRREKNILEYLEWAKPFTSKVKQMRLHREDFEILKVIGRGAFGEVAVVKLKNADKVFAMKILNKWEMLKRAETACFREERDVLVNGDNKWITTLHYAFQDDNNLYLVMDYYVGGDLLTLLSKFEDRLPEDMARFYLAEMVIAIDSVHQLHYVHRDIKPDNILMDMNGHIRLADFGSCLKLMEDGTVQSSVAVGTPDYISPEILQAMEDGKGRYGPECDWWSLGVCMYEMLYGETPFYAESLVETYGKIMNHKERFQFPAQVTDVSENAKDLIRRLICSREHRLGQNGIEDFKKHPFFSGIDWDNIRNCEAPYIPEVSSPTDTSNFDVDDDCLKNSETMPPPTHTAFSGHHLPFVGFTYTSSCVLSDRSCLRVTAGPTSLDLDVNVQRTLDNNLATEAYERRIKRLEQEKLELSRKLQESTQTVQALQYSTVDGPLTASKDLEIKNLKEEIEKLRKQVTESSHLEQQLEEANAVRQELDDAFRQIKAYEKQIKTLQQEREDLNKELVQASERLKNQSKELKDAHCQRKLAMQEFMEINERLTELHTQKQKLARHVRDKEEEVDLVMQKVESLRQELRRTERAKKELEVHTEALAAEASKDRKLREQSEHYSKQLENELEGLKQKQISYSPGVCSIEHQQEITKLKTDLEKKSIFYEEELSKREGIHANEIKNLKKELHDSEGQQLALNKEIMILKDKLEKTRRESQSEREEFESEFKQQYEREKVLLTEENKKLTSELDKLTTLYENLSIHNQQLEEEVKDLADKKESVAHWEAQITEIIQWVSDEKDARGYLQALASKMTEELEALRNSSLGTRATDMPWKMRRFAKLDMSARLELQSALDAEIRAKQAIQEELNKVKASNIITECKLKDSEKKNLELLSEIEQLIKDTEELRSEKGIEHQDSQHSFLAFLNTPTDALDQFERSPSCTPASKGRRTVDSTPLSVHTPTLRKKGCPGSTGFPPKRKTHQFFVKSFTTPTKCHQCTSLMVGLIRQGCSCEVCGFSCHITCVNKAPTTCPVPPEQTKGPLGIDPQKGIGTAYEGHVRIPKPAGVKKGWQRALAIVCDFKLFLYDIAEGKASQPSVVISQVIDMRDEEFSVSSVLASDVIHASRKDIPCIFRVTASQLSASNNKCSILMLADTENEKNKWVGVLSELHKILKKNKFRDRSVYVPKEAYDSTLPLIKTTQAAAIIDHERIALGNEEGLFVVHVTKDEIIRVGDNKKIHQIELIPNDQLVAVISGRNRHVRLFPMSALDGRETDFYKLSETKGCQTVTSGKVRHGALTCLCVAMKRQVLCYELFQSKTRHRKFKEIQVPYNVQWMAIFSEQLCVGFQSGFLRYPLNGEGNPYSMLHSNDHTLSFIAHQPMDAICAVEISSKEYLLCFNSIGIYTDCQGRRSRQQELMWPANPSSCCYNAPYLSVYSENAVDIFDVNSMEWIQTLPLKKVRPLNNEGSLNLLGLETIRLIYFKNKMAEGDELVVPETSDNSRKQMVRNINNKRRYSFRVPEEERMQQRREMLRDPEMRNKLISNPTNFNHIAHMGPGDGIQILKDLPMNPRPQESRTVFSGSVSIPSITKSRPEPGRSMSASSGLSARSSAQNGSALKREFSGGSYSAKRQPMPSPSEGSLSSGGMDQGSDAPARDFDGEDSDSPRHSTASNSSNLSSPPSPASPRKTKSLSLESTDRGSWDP

| SMILES | Residual activity, SAK ([1]; assay conc. 1.0E-06 M) | Residual activity, SAK ([1]; assay conc. 1.0E-07 M) | Residual activity ([2]; 1.0E-06 M) | Residual activity ([2]; 1.0E-07 M) | Residual activity ([3]; EPHB4, 1.0E-06 M) | Residual activity ([3]; EPHB4, 1.0E-07 M) | Residual activity ([4]; GRK3, 1.0E-06 M) | Residual activity ([4]; GRK3, 1.0E-07 M) |
| --- | --- | --- | --- | --- | --- | --- | --- | --- |
| C#Cc1cc(Nc2ncnc3cc(I)ccc23)ccc1Cl [Compound 41] | 77 % of control | 95 % of control | 141 % of control | 140 % of control | 92 % of control | 89 % of control | 127 % of control | 131 % of control |
| C#Cc1cc(Nc2ncnc3cc(OC)c(OC)cc23)ccc1Cl [Compound 45] | 82 % of control | 99 % of control | 113 % of control | 114 % of control | 82 % of control | 101 % of control | 118 % of control | 123 % of control |
